Experimental data: patent US20240228488A1 (TAKEDA PHARMACEUTICAL COMPANY LIMITED, priority 2021, published 2024)

What was measured:
[1] = molecular target: human activated kallikrein enzyme (Homo sapiens, UniProt P03952); experiment: Plasma kallikrein inhibition, fluorogenic PFR-AMC substrate, 500 pM activated kallikrein format; format: biochemical; conditions: 500 pM activated kallikrein, 300 uM PFR-AMC, 30 min preincubation, 10 min reaction; read-out: Primary Dose Response Assay: Average EC50
How it was run: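 Enzyme at 500 pM preincubated 30 min RT with inhibitors in 20 mM Tris pH 7.5, 1 mM EDTA, 150 mM NaCl, 0.1% PEG-400, 0.1% Triton X-100. Reaction started with 300 uM PFR-AMC, run 10 min RT; fluorescence read at 460 nm emission, 380 nm excitation. EC50 reported in ranges.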

[2] = molecular target: T1, plasma kallikrein (Homo sapiens, UniProt P03952); experiment: Neat human plasma assay, FXIIa contact pathway-activated, PFR-AMC substrate; format: biochemical; conditions: citrated human plasma 78% final, 10 nM human FXIIa, 100 μM PFR-AMC; read-out: Human Plasma Assay: IC90
T1 construct: from tissue
How it was run: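 Citrated human plasma (78% final) with compound, contact-activated by 10 nM human FXIIa in pKal buffer pH 7.5, with 100 μM PFR-AMC. Fluorescence (360/480 nm) followed 5 min at room temperature; rates versus concentration fitted by 4-parameter equation for IC50/IC90.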

T1 sequence (P03952 391-638 limits assumed): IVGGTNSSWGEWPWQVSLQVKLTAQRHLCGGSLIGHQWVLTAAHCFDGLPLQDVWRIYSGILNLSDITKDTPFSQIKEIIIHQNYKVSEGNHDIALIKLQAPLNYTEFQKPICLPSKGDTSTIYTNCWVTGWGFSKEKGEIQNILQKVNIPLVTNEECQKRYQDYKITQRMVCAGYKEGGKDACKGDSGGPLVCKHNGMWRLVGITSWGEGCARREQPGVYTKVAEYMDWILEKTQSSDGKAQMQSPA
T1 sequence (P03952 20-390 partner limits assumed): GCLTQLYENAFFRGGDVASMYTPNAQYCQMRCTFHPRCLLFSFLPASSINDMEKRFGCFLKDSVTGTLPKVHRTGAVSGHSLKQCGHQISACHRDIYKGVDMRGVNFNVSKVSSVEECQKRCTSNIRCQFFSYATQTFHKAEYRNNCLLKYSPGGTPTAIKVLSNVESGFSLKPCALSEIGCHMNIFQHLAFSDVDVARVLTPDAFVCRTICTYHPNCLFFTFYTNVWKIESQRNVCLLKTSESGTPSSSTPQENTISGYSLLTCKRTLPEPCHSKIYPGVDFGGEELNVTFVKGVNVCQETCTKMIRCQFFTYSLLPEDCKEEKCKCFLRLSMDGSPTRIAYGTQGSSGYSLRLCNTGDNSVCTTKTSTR
human activated kallikrein enzyme, sequence (P03952 391-638 limits assumed): as the sequence (P03952 391-638 limits assumed) above
human activated kallikrein enzyme, sequence (P03952 20-390 partner limits assumed): as the sequence (P03952 20-390 partner limits assumed) above

Row | Structure (SMILES) | EC50 [1] | IC90 [2]
1 | O=C(Nc1cc(NCc2cn3cc(C4CC4)cc(N4CCS(=O)(=O)CC4)c3n2)ncn1)[C@H]1C[C@@H]1c1cc(Cl)ccn1 [Example 326, (1S,2S)-2-(4-chloropyridin-2-yl)-N-(6-(((6-cyclopropyl-8-(1,1-dioxidothiomorpholino)imidazo[1,2-a]pyridin-2-yl)methyl)amino)pyrimidin-4-yl)cyclopropane-1-carboxamide] | < 1 nM | 400 to 1500 nM
2 | O=C(Nc1cc(NCc2cn3cc(C4CC4)cc(N4CC(=O)N(C5CC5)C4=O)c3n2)ncn1)[C@H]1C[C@@H]1c1cccc(Cl)c1 [Example 399, (1S,2S)-2-(3-chlorophenyl)-N-(6-(((6-cyclopropyl-8-(3-cyclopropyl-2,4-dioxoimidazolidin-1-yl)imidazo[1,2-a]pyridin-2-yl)methyl)amino)pyrimidin-4-yl)cyclopropane-1-carboxamide] | 1 to 10 nM | 1500 to 10000 nM
3 | O=C(Nc1cc(NCc2cn3cc(C4CC4)ccc3n2)ncn1)[C@H]1C[C@@H]1c1cc(Cl)ccc1Cl (racemic) [Example 49, rac-(1S*,2S*)-N-(6-(((6-cyclopropylimidazo[1,2-a]pyridin-2-yl)methyl)amino)pyrimidin-4-yl)-2-(2,5-dichlorophenyl)cyclopropane-1-carboxamide] | 100 to 1000 nM | < 400 nM
4 | Cc1ccnc([C@H]2C[C@@H]2C(=O)Nc2ncc(F)c(N(C)Cc3cn4cc(C5CC5)cc(N5CC(=O)NC5=O)c4n3)n2)n1 (racemic) [Example 516, rac-(1S*,2S*)-N-(4-(((6-cyclopropyl-8-(2,4-dioxoimidazolidin-1-yl)imidazo[1,2-a]pyridin-2-yl)methyl)(methyl)amino)-5-fluoropyrimidin-2-yl)-2-(4-methylpyrimidin-2-yl)cyclopropane-1-carboxamide] | < 1 nM | < 400 nM
5 | CN(C)C(=O)c1cc(C2CC2)cn2cc(CNc3cc(NC(=O)[C@H]4C[C@@H]4c4cccc(Cl)c4)ncn3)nc12 [Example 299, 2-(((6-((1S,2S)-2-(3-chlorophenyl)cyclopropane-1-carboxamido)pyrimidin-4-yl)amino)methyl)-6-cyclopropyl-N,N-dimethylimidazo[1,2-a]pyridine-8-carboxamide] | < 1 nM | 400 to 1500 nM
6 | O=C(Nc1cc(NCc2cn3cc(C4CC4)cc(N4CCN(CCO)CC4)c3n2)ccn1)[C@H]1C[C@@H]1c1cccc(Cl)c1 [Example 603, (1S,2S)-2-(3-chlorophenyl)-N-(4-(((6-cyclopropyl-8-(4-(2-hydroxyethyl)piperazin-1-yl)imidazo[1,2-a]pyridin-2-yl)methyl)amino)pyridin-2-yl)cyclopropane-1-carboxamide] | < 1 nM | < 400 nM
7 | Cc1ccnc([C@H]2C[C@@H]2C(=O)Nc2cc(OCc3cn4cc(C5CC5)cc(N5CC(=O)N(C)C5=O)c4n3)nc(C)n2)n1 [Example 555, (1S,2S)-N-(6-((6-cyclopropyl-8-(3-methyl-2,4-dioxoimidazolidin-1-yl)imidazo[1,2-a]pyridin-2-yl)methoxy)-2-methylpyrimidin-4-yl)-2-(4-methylpyrimidin-2-yl)cyclopropane-1-carboxamide] | < 1 nM | 400 to 1500 nM
8 | Cc1ccnc([C@H]2C[C@@H]2C(=O)Nc2cc(NCc3cn4cc(C5CC5)cc(N5CC(=O)N(C)C5=O)c4n3)cc(C(F)(F)F)n2)n1 (racemic) [Example 618, rac-(1S*,2S*)—N-(4-(((6-cyclopropyl-8-(3-methyl-2,4-dioxoimidazolidin-1-yl)imidazo[1,2-a]pyridin-2-yl)methyl)amino)-6-(trifluoromethyl)pyridin-2-yl)-2-(4-methylpyrimidin-2-yl)cyclopropane-1-carboxamide] | < 1 nM | 400 to 1500 nM
9 | CN1C(=O)CN(c2cc(C3CC3)cn3cc(CNc4cc(NC(=O)[C@H]5C[C@@H]5c5cc(Cl)ccn5)ncn4)nc23)C1=O (single isomer, unassigned) [Example I-264] | < 1 nM | 400 to 1500 nM
10 | Cc1ccnc([C@H]2C[C@@H]2C(=O)Nc2cc(N(CC(=O)OCc3ccccc3)Cc3cn4cc(C5CC5)cc(N5CC(=O)N(C)C5=O)c4n3)ncn2)n1 [Example 371, benzyl N-((6-cyclopropyl-8-(3-methyl-2,4-dioxoimidazolidin-1-yl)imidazo[1,2-a]pyridin-2-yl)methyl)-N-(6-((1S,2S)-2-(4-methylpyrimidin-2-yl)cyclopropane-1-carboxamido)pyrimidin-4-yl)glycinate] | 1 to 10 nM | 1500 to 10000 nM
11 | O=C(Nc1cc(NCc2cn3cc(C4CC4)cc(N4CCOC4=O)c3n2)ncn1)[C@H]1C[C@@H]1c1cc(Cl)ccn1 [Example I-172, (1S,2S)-2-(4-chloropyridin-2-yl)-N-(6-(((6-cyclopropyl-8-(2-oxooxazolidin-3-yl)imidazo[1,2-a]pyridin-2-yl)methyl)amino)pyrimidin-4-yl)cyclopropane-1-carboxamide] | < 1 nM | 400 to 1500 nM

More lines, now with the values ahead:

Row | EC50 [1] | IC90 [2] | Structure (SMILES)
12 | 1 to 10 nM | > 48000 nM | O=C(Nc1cc(NCc2cn3cc(C4CC4)ccc3n2)ncn1)[C@H]1C[C@@H]1c1cccc(Cl)c1 (single isomer, unassigned) [Example 57]
13 | < 1 nM | < 400 nM | COc1cnc(NC(=O)[C@H]2C[C@@H]2c2nccc(C)n2)nc1NCc1cn2cc(C3CC3)cc(N3CC(=O)N(C)C3=O)c2n1 (racemic) [Example I-244, rac-(1S*,2S*)-N-(4-(((6-cyclopropyl-8-(3-methyl-2,4-dioxoimidazolidin-1-yl)imidazo[1,2-a]pyridin-2-yl)methyl)amino)-5-methoxypyrimidin-2-yl)-2-(4-methylpyrimidin-2-yl)cyclopropane-1-carboxamide]
14 | < 1 nM | 400 to 1500 nM | Cc1ccnc([C@H]2C[C@@H]2C(=O)Nc2ncc(C(F)(F)F)c(OCc3cn4cc(C5CC5)cc(N5CC(=O)N(C)C5=O)c4n3)n2)n1 (racemic) [Example 628, rac-(1S*,2S*)—N-(4-((6-cyclopropyl-8-(3-methyl-2,4-dioxoimidazolidin-1-yl)imidazo[1,2-a]pyridin-2-yl)methoxy)-5-(trifluoromethyl)pyrimidin-2-yl)-2-(4-methylpyrimidin-2-yl)cyclopropane-1-carboxamide]
15 | 1 to 10 nM | 1500 to 10000 nM | COCC1CN(c2cc(C3CC3)cn3cc(CNc4cc(NC(=O)[C@H]5C[C@@H]5c5cccc(Cl)c5)ncn4)nc23)CCN1C (stereo partly drawn) [Example I-6, (1S,2S)-2-(3-chlorophenyl)-N-(6-(((6-cyclopropyl-8-(3-(methoxymethyl)-4-methylpiperazin-1-yl)imidazo[1,2-a]pyridin-2-yl)methyl)amino)pyrimidin-4-yl)cyclopropane-1-carboxamide]
16 | < 1 nM | 400 to 1500 nM | Cc1ccnc([C@H]2C[C@@H]2C(=O)Nc2nc(Cl)nc(NCc3cn4cc(C5CC5)cc(N5CC(=O)N(C)C5=O)c4n3)n2)n1 (racemic) [Example 622, rac-(1S*,2S*)—N-(4-chloro-6-(((6-cyclopropyl-8-(3-methyl-2,4-dioxoimidazolidin-1-yl)imidazo[1,2-a]pyridin-2-yl)methyl)amino)-1,3,5-triazin-2-yl)-2-(4-methylpyrimidin-2-yl)cyclopropane-1-carboxamide]
17 | < 1 nM | 400 to 1500 nM | Cc1cc(C)nc([C@H]2C[C@@H]2C(=O)Nc2cc(NCc3cn4cc(C5CC5)cc(N5CC(=O)N(C)C5=O)c4n3)ncn2)n1 (racemic) [Example 497, rac-(1S*,2S*)-N-(6-(((6-cyclopropyl-8-(3-methyl-2,4-dioxoimidazolidin-1-yl)imidazo[1,2-a]pyridin-2-yl)methyl)amino)pyrimidin-4-yl)-2-(4,6-dimethylpyrimidin-2-yl)cyclopropane-1-carboxamide]
18 | 1 to 10 nM | 400 to 1500 nM | Cc1ncnc([C@H]2C[C@@H]2C(=O)Nc2cc(NCc3cn4cc(C5CC5)cc(N5CC(=O)N(C)C5=O)c4n3)ncn2)n1 (racemic) [Example 495, rac-(1S*,2S*)-N-(6-(((6-cyclopropyl-8-(3-methyl-2,4-dioxoimidazolidin-1-yl)imidazo[1,2-a]pyridin-2-yl)methyl)amino)pyrimidin-4-yl)-2-(4-methyl-1,3,5-triazin-2-yl)cyclopropane-1-carboxamide]
19 | 1 to 10 nM | 10000 to 48000 nM | O=C(Nc1nsc(NCc2cn3cc(C4CC4)ccc3n2)n1)[C@H]1C[C@@H]1c1cccc(Cl)c1 [Example 610, (1S,2S)-2-(3-chlorophenyl)-N-(5-(((6-cyclopropylimidazo[1,2-a]pyridin-2-yl)methyl)amino)-1,2,4-thiadiazol-3-yl)cyclopropane-1-carboxamide]
20 | < 1 nM | < 400 nM | Cc1ccnc([C@H]2C[C@@H]2C(=O)Nc2cc(NCc3cn4cc(C5CC5)cc(N5CC(=O)N(C)C5=O)c4n3)ncn2)n1 (racemic) [Example I-259, rac-(1S*,2S*)—N-(6-(((6-cyclopropyl-8-(3-methyl-2,4-dioxoimidazolidin-1-yl)imidazo[1,2-a]pyridin-2-yl)methyl)amino)pyrimidin-4-yl)-2-(4-methylpyrimidin-2-yl)cyclopropane-1-carboxamide]
21 | < 1 nM | < 400 nM | Cc1ccnc([C@H]2C[C@@H]2C(=O)Nc2cc(NCc3cn4cc(C5CC5)cc(N5CC(=O)N(C)C5=O)c4n3)cnn2)n1 (racemic) [Example 617, rac-(1S*,2S*)—N-(5-(((6-cyclopropyl-8-(3-methyl-2,4-dioxoimidazolidin-1-yl)imidazo[1,2-a]pyridin-2-yl)methyl)amino)pyridazin-3-yl)-2-(4-methylpyrimidin-2-yl)cyclopropane-1-carboxamide]
